Here are results for 1 compound from BindingDB's records for patent US20260007681 (University Of Michigan, 2026).

For orientation: IC50 means the concentration that inhibits the measured activity by half. Higher therefore signals a need for much substance.

For the experiment, the target named is DNA damage-binding protein 1/Protein cereblon (Homo sapiens, UniProt Q96SW2). On the procedure:
The binding potency was determined using H-TRF assay technology (Perkin Elmer). Compounds were serially diluted in DMSO and 0.2 μL volume was transferred to white 384-well plate.

Sequence of DNA damage-binding protein 1/Protein cereblon (Q16531 whole entry): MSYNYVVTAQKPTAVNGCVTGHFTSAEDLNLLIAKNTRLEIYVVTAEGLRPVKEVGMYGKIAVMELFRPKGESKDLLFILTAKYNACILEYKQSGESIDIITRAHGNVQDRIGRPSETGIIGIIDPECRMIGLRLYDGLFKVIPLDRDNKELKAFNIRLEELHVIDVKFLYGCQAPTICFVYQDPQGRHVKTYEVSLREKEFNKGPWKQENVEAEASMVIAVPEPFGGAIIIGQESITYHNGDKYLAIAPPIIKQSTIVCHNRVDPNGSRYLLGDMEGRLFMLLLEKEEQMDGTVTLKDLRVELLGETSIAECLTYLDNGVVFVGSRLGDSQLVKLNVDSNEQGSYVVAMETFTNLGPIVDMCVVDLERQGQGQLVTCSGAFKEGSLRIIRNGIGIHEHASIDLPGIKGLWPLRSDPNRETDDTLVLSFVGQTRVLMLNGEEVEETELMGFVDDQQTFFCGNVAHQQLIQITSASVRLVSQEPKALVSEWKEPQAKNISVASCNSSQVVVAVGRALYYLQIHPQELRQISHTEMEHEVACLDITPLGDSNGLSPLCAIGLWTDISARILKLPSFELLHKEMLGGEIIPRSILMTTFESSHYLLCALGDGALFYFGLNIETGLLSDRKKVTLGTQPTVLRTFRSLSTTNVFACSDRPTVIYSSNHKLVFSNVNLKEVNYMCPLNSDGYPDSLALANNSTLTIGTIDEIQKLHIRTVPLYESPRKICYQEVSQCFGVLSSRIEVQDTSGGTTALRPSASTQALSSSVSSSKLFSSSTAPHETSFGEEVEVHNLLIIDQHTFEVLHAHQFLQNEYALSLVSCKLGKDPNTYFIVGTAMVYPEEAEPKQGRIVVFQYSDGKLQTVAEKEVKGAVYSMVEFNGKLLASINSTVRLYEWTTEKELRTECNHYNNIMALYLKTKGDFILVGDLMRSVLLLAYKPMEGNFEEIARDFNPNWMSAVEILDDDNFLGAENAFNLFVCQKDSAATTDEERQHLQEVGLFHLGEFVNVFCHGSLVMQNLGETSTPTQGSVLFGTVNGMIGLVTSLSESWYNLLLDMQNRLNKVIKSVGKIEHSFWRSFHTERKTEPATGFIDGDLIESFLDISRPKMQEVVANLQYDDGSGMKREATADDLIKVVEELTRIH
Sequence of DNA damage-binding protein 1/Protein cereblon (Q96SW2 whole entry): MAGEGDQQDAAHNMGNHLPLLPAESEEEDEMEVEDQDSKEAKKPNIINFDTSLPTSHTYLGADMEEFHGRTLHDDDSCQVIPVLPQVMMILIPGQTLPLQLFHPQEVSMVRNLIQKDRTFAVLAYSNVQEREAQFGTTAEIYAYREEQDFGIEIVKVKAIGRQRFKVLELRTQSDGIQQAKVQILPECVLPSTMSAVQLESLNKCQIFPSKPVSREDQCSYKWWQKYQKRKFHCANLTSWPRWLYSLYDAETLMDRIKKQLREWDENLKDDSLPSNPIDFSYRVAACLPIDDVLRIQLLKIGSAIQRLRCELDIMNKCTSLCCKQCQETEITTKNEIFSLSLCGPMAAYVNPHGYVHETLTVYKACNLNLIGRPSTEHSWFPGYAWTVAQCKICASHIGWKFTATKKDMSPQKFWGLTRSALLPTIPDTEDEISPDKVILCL

The compound `C[C@@H]1Cc2c([nH]c3ccccc23)[C@@H](c2cnc(N3CCC(N4CCN(c5ccc(NC6CCC(=O)NC6=O)cc5F)CC4)CC3)nc2)N1CC(C)(C)F` (stereo partly specified) [US20260007681, Compound A2] yielded an IC50 of 500 to 5000 nM.
